Experimental data reported in patent US6692743B1, “Apoptosis of naive human NK cells by crosslinking of their FcγRIIIa molecules with a rat IgG2b (LO-CD2a/BTI-322) or its IgG1 humanized monoclonal antibody” (Universite Catholique de Louvain, priority 1998, dated 2004).
Numbered stars: 1 amine (or outer) side, 2 acyl side, 3 side chain; on linkers, the order of the positions; unused ones are H or OH. Bridge positions count the residues as written; N and C are the ends. Square brackets hold non-standard residues; d marks the D form. Peptide text beside a SMILES is read from it. I, II: the chains in the order shown. Actinocin(9to1) = Cc1c2oc3c(C)ccc(C(=O)[*:1])c3nc-2c(C(=O)[*:2])c(N)c1=O; NMeV = CN[C@H](C(=O)O)C(C)C; Sar = CNCC(=O)O

Test system: freshly isolated NK cells
Assay: Effect of different inhibitors on LO-CD2a mediated NK apoptosis (PI, flow cytometry)
Format: cell-based, human
Conditions: 3 h pre-incubation with inhibitor, then 3 hours with LO-CD2a; 5 donors
Method: Effect of different inhibitors on LO-CD2a mediated NK apoptosis. 100 ul of freshly isolated NK cells (10^6/ml) were pre-incubated for 3 h at 37° C. in a 96 well plate with EGTA (20 mM), staurosporin (250 nM), quinacrine ([…]), cyclosporin A ([…]), FK506 ([…]), wortmannin (500 ng/ml), concanamycin A ([…]), cytochalasine D (1 mg/ml), actinomycin) (500 ng/ml final concentration), NOK-1 (25 mg/ml) or medium alone. After incubation for 3 hours with LO-CD2a ([…] final concentration) propidium iodide was added and cell mortality was analysed by flow cytometry.

Molecule	inhibition of LO-CD2a mediated NK apoptosis (in words)
O=C(O)CN(CCOCCOCCN(CC(=O)O)CC(=O)O)CC(=O)O [EGTA]	completely inhibited
Cc1c2oc3c(C)ccc(C(=O)N[C@@H]4C(=O)N[C@H](C(C)C)C(=O)N5CCC[C@H]5C(=O)N(C)CC(=O)N(C)[C@@H](C(C)C)C(=O)O[C@@H]4C)c3nc-2c(C(=O)N[C@@H]2C(=O)N[C@H](C(C)C)C(=O)N3CCC[C@H]3C(=O)N(C)CC(=O)N(C)[C@@H](C(C)C)C(=O)O[C@@H]2C)c(N)c1=O [actinomycin D, Actinomycin D] (I: T[dV]P[Sar][NMeV] / II: T[dV]P[Sar][NMeV]; ester I:1-I:C, II:1-II:C; linker I:N-II:N via Actinocin(9to1))	did not have any blocking effect
C/C=C/[C@H]1O[C@@](O)([C@@H](C)[C@H](O)[C@H](C)[C@H]2OC(=O)/C(OC)=C/C(C)=C/[C@@H](C)[C@@H](O)[C@@H](CC)[C@@H](O)[C@H](C)C/C(C)=C/C=C/[C@@H]2OC)C[C@@H](O[C@H]2C[C@@H](O)[C@H](OC(N)=O)[C@@H](C)O2)[C@@H]1C [concanamycin A, Concanamycin A]	failed to inhibit apoptosis
CCN(CC)CCCC(C)Nc1c2ccc(Cl)cc2nc2ccc(OC)cc12 (centres unmarked) [quinacrine, Quinacrine]	completely inhibited
Cyclosporin A	partially inhibited
